Series [1] deals with β-lactamase. Description: β-lactamase resistance to heat degradation (residual amoxicillin by HPLC). Particulars: for [Amoxicillin] (arbitrary units): amoxicillin 500 mg·L^−1, 5 min at 25° C.
Experimental: β-Lactamase (Genzyme Biochemicals Ref. BELA-70-1431) in an amount equivalent to 0.375 U·mL^−1 was mixed with the cyclodextrin BCD A56 of the Protéosol® range (1 or 10 mM), at ambient temperature and in the dark, for 30 min. The mixture was then heated at 70° C. for 45 min. […] After incubation for 5 min at 25° C., the residual amoxicillin was analyzed by HPLC.
On the basis of the above profiles, it was possible to quantify the concentration of amoxicillin and to link this value to the β-lactamase activity.
Series [2] is described as follows: Stability of cefoxitin in the presence of cyclodextrins at 65° C. (HPLC). It is filed as physicochemical. On the procedure:
0.444 mM of cefoxitin (Sigma, Ref. C4786-5G) and 8.88 mM of cyclodextrin (ACD N0 or GCD NO or BCD R59 or BCD C15), i.e. in a molar ratio of 1:20, were dissolved with stirring for one hour at ambient temperature. The mixture was then brought to 65° C. for 90 min. The integrity of the cefoxitin was then analyzed by HPLC. The analysis of the samples and the quantification thereof were carried out on a Thermo Finnigan SpectraSYSTEM HPLC system equipped with a P1000XR pump, an AS3000 automatic injector, a UV1000 UV/visible detector, and a Merck Chromolith® Performance RP-18 endcapped column (100-4.6 mm) preceded by a Merck Chromolith® RP-18e guard column (5-4.6 mm).
The mobile phases were prepared using HPLC-grade acetonitrile and water acidified with trifluoroacetic acid (100 μL/L). A methanol/water gradient of 0/100 to 100/0 was applied in 12 min. After stabilization for 2 min, the column is reequilibrated under the initial conditions. The elution speed is 1 mL/min, the temperature is 22° C. and the detection is carried out at 254 nm. The sample injection volume is 20 μL. The chromatographic data were processed using the Atlas software, version 2003.1 (Thermo Electron Corporation, UK).
The optimization of protection was sought by varying the cefoxitin:cyclodextrin (BCD R59 and BCD C15) molar ratio from 1:1 to 1:216, the other conditions remaining unchanged. […] The improvement in stability was calculated relative to the control without cyclodextrin.

Series [3] is classed as physicochemical. Particulars: for native molecule (cloxacillin) found after heating: 31 h at 75° C. Here is the method: Cloxacillin (molecular mass 475.88) is an antibiotic of β-lactam type, used to inhibit the growth of certain bacterial species such as Enterobacter aerogenes or Escherichia coli. The cyclodextrins of the BioCydex library were incubated with cloxacillin in a 1:1 molar ratio (concentration=210.12 mM), at 20° C. for 72 h (shaking in the dark). The amount of residual cloxacillin was then analyzed by HPLC.
The following tests were carried out in an aqueous medium and at high temperature (75° C.) in order to accelerate the rate of degradation.
The complexes were prepared at ambient temperature with cloxacillin:cyclodextrin molar ratios of 1:16 and of 1:79. The solutions containing 0.63 mM, i.e. 300 mg·L^−1, of cloxacillin were incubated at 75° C. for 31 h. The analysis of the samples and the quantification thereof so as to evaluate the stability of the antibiotic were carried out on a Thermo Finnigan SpectraSYSTEM HPLC system equipped with a P1000XR pump, an AS3000 automatic injector, a UV1000 UV/visible detector, and a Merck Chromolith® Performance RP-18 endcapped column (100-4.6 mm) preceded by a Merck Chromolith® RP-18e guard column (5-4.6 mm).
The mobile phases were prepared using HPLC-grade acetonitrile and water acidified with trifluoroacetic acid (100 μL/L). A methanol/water gradient of 0/100 to 100/0 was applied in 12 min. After stabilization for 2 min, the column is reequilibrated under the initial conditions. The elution speed is 1 mL/min, the temperature is 22° C. and the detection is carried out at 220 nm. The sample injection volume is 20 μL. The chromatographic data were processed using the Atlas software, version 2003.1 (Thermo Electron Corporation, UK).

Setting [4] is: cloxacillin complexed with cyclodextrin.

Read-outs that look alike come from different tables or passages of the source.

Consider “6^I-(3-aminopropylamino)-6^I-deoxycyclomaltoheptaose [BCD A56]”, for which the “protection of the β-lactamase against heat” value in series [1] (BCD A56 at 10 mM, reference: absence of cyclodextrin) is recorded as “excellent protection”. Also, in series [1] (β-lactamase + BCD A56), the “interaction with the active site of the enzyme” value is “did not interact”. Moreover, the “[Amoxicillin] (arbitrary units)” value is 4.3 arbitrary units in series [1] (β-lactamase heated 70° C. 45 min + BCD A56 at 1 mM) and 0.8 arbitrary units in series [1] (β-lactamase heated 70° C. 45 min + BCD A56 at 10 mM).
Turning to `CO[C@@]1(NC(=O)Cc2cccs2)C(=O)N2C(C(=O)O)=C(COC(N)=O)CS[C@@H]21` [cefoxitin, reference compound], the stability of cefoxitin in series [2] (cefoxitin:cyclodextrin molar ratio 1:50, 90 min at 65° C.) was found to be 47.5%. The Cefoxitin stability/% in series [2] (no cyclodextrin, 0.444 mM cefoxitin, 65° C. for 90 min) is 38.5%.
Take `Cc1onc(-c2ccccc2Cl)c1C(=O)N[C@@H]1C(=O)N2[C@@H]1SC(C)(C)[C@@H]2C(=O)O` [cloxacillin, reference compound]: in series [3] (31 h, 0.63 mM), the “Cloxacillin stability (%)” value worked out at 0.6%. The “native molecule (cloxacillin) found after heating” value (shortened to “native molecule”) in series [3] (cloxacillin not associated with cyclodextrin) was found to be 0%.
Regarding “randomly 2,3,6-O-(2-hydroxypropyl)cyclomaltoheptaose [BCD R59]”, the “native molecule” value in series [3] (setting [4]) was 40%.
As to “randomly 2-O-methyl-cyclomaltoheptaose [BCD C15]”, the “protection of cloxacillin against heat degradation, comparison of cyclodextrins” value in series [3] is reported as “best protection”. Further, the “native molecule” value in series [3] (setting [4]) turned out to be 40%. Also, in series [2], the “complexed antibiotic (cefoxitin) less degraded than the molecule alone” value is “approximately 10%”. Also, the “protection of cefoxitin, comparison of BCD R59 and BCD C15” value in series [2] (molar ratios between 1:6 and 1:30, FIG. 2) is “most effective”.

The values above are taken from patent US20100120084A1, “REACTION MEDIUM FOR IDENTIFYING/DETECTING MICROORGANISMS” (Biomerieux, priority 2007, published 2010).
